SMILES	melting point [°C]
O=P(OC1=Nc2ccc(Cl)cc2C(c2ccccc2Cl)=NC1)(N1CCOCC1)N1CCOCC1	185 to 187
Cc1c(C(=O)Nc2ccc(N3CCC(N4CCOCC4)CC3)c([N+](=O)[O-])c2)cnn1-c1ccc(C(F)(F)F)cc1	225 to 230
CO[C@@H](C(=O)N[C@H]1CC[C@@H](OC(=O)C=Cc2ccccc2)CNC1=O)[C@H](O)[C@@H](O)[C@H](O)/C=C/C(C)(C)C	83 to 85
O=[N+]([O-])c1cc(C(F)(F)F)c(Cl)cc1NCP(=O)(O)O	207
O=C1N(C(c2ccccc2)c2ccccc2)c2cc(F)ccc2C12COc1cc3c(cc12)CCO3 (centres undefined)	194 to 196
Nc1nc2n(n1)Cc1ccccc1-2	193 to 194
CC1Nc2cnccc2N(C)n2cccc21 (centres undefined)	157 to 160
Brc1ccc(-c2ccc(I)cc2)cc1	177 to 179
CN1CC(CO)Cc2ccc(NC(=O)/C=C/c3ccc(C(F)(F)F)cc3)cc21 (centres undefined)	167 to 169
Cc1cc(-c2c(-c3ccc(F)cc3)ncn2CC2CC2)ccn1	141 to 142
Nc1ccc(-c2ccc(-c3ccc(N)cc3Cl)o2)c(Cl)c1	192 to 193
Cc1nc(C(F)(F)F)ccc1/C=C/C(=O)Nc1ccc2cc[nH]c2c1	223
Cc1cccc(-c2n[nH]cc2-c2ccc(F)c(-c3ccc(S(=O)(=O)C(F)(F)F)cc3)c2)n1	81 to 84
COc1c(S(=O)(=O)Cl)ccc(Cl)c1C	88 to 92
COc1ccc(NC(=O)c2ccc(OC)c(NC(=S)Nc3cc(Cl)cc(Cl)c3)c2)cc1	175 to 182
CC=Cc1ccc2c(c1)C(=O)N(c1ccc(C(C)C(=O)OC(C)(C)C)cc1)C2 (centres undefined)	125 to 130
O=C(O)CNC(=O)c1cc(-c2ccc3c(c2)OCO3)c2c3c(ccc2c1)OCO3	255 to 257
NC(=O)N1C(=O)C(=C(OC(=O)C=CC(=O)OCCCCc2ccccc2)c2cccs2)c2cc(F)c(Cl)cc21	159 to 161
Fc1ccc([C@]2(Cn3nc[nH]c3=S)O[C@H]2c2ccccc2Cl)c(F)c1 (racemic)	180
COc1cc(Cc2cnc(N)nc2N)cc(C=Cc2ccccc2)c1OC	226
COc1cc(Nc2ncc(-c3ccccc3N(C)C(=O)CN3CCOCC3)o2)ccc1-c1cnco1	179 to 181
CC(C)Oc1ccccc1NC(=O)Nc1ccc2cnccc2n1	78 to 80
CC(C)Sc1cc2c(cc1Cl)N=C(C(Cl)Cl)NS2(=O)=O	287 to 289

SMILES	melting point [°C]
O=CNC(CC(=O)O)c1ccccc1 (centres undefined)	135 to 136
Clc1ccc(OCc2ccc3ccccc3n2)cc1Cl	80.5 to 82
COCc1cc2c(cc1O)CCC1C2CCC2(C)C(=O)CCC12 (centres undefined)	149 to 151
CCOC(=O)C(Cc1ccc(C(F)(F)F)c(F)c1)C(=O)c1ccc(F)cc1 (centres undefined)	56 to 57
Cc1ccc(-c2ncc(N(CCCCOCC(=O)O)C(C)C)nc2-c2ccc(C)cc2)cc1	155 to 156
N#Cc1ncc(NCCO)nc1N1CCN(c2ccc(F)cc2)CC1	149 to 151
COC(=O)c1ccc(OCCNC(=O)C2Cc3ccccc3N2S(=O)(=O)c2ccc(-c3ccc(F)cc3)cc2)cc1F (centres undefined)	77 to 81
COc1c(C)c(OC(=O)c2c(C)c(C)c(OCCCOc3ccc(C(N)=O)cc3)c(C)c2OC)c(C)c(C)c1C(N)=O	284 to 286
CCOC(=O)COc1c(CO)c(C(F)(F)F)nn1C	57 to 59
O=C(O)C1Oc2cc3onc(-c4ccccc4)c3c(Cl)c2O1 (centres undefined)	102
CCCNc1nc(N)nc2c1ncn2C1C=CC(CO)C1 (centres undefined)	138 to 140
CC1=C(C(=O)OC(C)(C)C)C(c2ccc(Br)cc2)C(C(=O)OC(C)(C)C)=C(C)N1	206 to 207
CS(=O)(=O)c1nccc(-c2nc(=O)c3ccccc3s2)n1	270
Cn1cc(C2=C(c3cn4c5c(cccc35)CCC4CCO)C(=O)NC2=O)c2ccccc21 (centres undefined)	214 to 215
NCCN1CCOC(c2ccccc2)(c2ccccc2)CC1	75 to 80
CCCCOCCOc1ccc(-c2ccc(N3CCC(CC(=O)OCC)C3)c(C=C(C)C(=O)O)c2)cc1 (centres undefined)	116
CCOC(=O)c1sc(SC)c2c1CCc1cn[nH]c1-2	207 to 208
CCN(C(=O)C(C)CSC(c1ccccc1)(c1ccccc1)c1ccccc1)c1cn(-c2cccnc2)nc1Cl (centres undefined)	64 to 66
O=C(NC1(COc2ccc(Br)cc2)COC1)OCc1ccccc1	101 to 103
CN(C)CCc1cccc(OCCNc2nc(N)nn2C)c1	72
CC(C)(C)OC(=O)N1CCC(Nc2nc3ccccc3n2Cc2cnc(CO)o2)CC1	132
COC(=O)c1oc(C)nc1-c1ccc2c(c1)CCCC2	96 to 97

The remaining lines, values ahead:

melting point [°C]	SMILES
234	O=C1NC(=O)C(=Cc2ccc(OCCNc3ncccn3)cc2)S1
170	CCc1nnc(-c2cccc(N(C)C)c2)n1-c1ccc(OC)cc1
245 to 249	C#CCc1c(C)nc(N)[nH]c1=O
67.5	CC(C)(C)OC(=O)N=C(N)N(Cc1ccc(OCCC2Oc3cc([N+](=O)[O-])ccc3N(Cc3cccc(Cl)c3)C2=O)cc1)C(=O)OC(C)(C)C (centres undefined)
161 to 163	CC(C)Cn1c(CNC(=O)OC(C)(C)C)c(-c2ccc(F)cc2)c2cc(/C=C/C(N)=O)ccc2c1=O
171	CC(=O)Nc1ccccc1C(=O)NCCN1CCC(Nc2nc3ccccc3n2Cc2ccc(F)cc2)CC1
150 to 154	CC(C)C[C@H](NC(=O)c1ccccc1)C(=O)N[C@@H](C(C)C)[C@@H](O)c1c(-c2ccccc2)c1=O
207 to 209	NCc1ccc(Nc2n[nH]c3ncnc(Nc4cccc(Cl)c4)c23)cc1
93.5 to 94.5	Cc1cc(-c2ccc(OC(C)C(O)CCc3cccnc3)cc2)ccc1C#N (centres undefined)
96 to 99	CCOC1OC(=O)CC1NC(=O)C1CCCN1C(=O)C(NC(=O)c1ccc(N)c(Cl)c1)C(C)(C)C (centres undefined)
225 to 228	Cc1nc(N(C)C)sc1C(=O)c1ccc(N)c([N+](=O)[O-])c1
97 to 100	CCSc1ccc(N)c(C(=O)O)c1
71 to 72	CC(C)[C@H](OCc1ccccc1)[C@H]1[C@H]([N+](=O)[O-])[C@H](c2ccccc2)N[C@@H]1C(=O)NCC(=O)O
157 to 159	O=C(O)c1noc(-c2cnccc2C(F)(F)F)n1
64 to 65	COC=C(C#N)Cc1ccc(OC)c(OC)c1
120 to 123	CC(C)=CCC/C(C)=C/Cn1c(CO)nc2ccccc21
183 to 185	CC1(C)Oc2ccc(C#N)cc2[C@@H](NC(=S)Nc2ccccc2)[C@@H]1O (relative stereo)
225	Cc1c(C(=O)O)cnn1-c1ccc(I)cc1
202 to 203	O=C(c1ccccc1)c1cnn2c(-c3cccnc3)ccnc12
180	CCCCNC(=S)N1CCc2[nH]cnc2C1CC (centres undefined)
209 to 212	Cc1cc(-c2ccc(Cl)cc2)nn2c(C)nnc12
138	CCCc1c(OCCCOc2cccc3c2CCCC3)ccc2c1OC(CCCC(=O)O)(CCCC(=O)O)CC2=O
140 to 141	CN(C)C=C(C#N)C=O
171 to 173	S=C(N=c1ccn(-c2ccccc2)nc1)Nc1ccccc1
